Data as given in US20180071317A1, “USE OF AGENTS THAT ALTER THE PERITUMORAL ENVIRONMENT FOR THE TREATMENT OF CANCER” (SERVICIO ANDALUZ DE SALUD, priority 2011, published 2018).

What was measured:
[1] = tested on: tumor cells from primary human tumors (PI3 Kinase pathway); experiment: Proliferation of primary human tumor cells (AKT modified or unchanged) alone or with stromal fibroblasts; assay type: cell-based; conditions: antagonist 1 μM
[2] = tested on: tumor cells from primary human tumors (PI3 Kinase pathway); experiment: Proliferation of primary human tumor cells (AKT modified or unchanged) alone or with macrophages; assay type: cell-based; conditions: antagonist 1 μM
[3] = tested on: primary human tumor cells; experiment: Proliferation of primary human tumor cells with low dose Aprepitant alone or with fibroblasts, leukocytes or macrophages; conditions: low dose (5 nanomolar)
[4] = tested on: tumor cells from primary human tumors (MAP Kinase pathway); experiment: Proliferation of primary human tumor cells (ERK modified or unchanged) alone or with macrophages; assay type: cell-based; conditions: antagonist 1 μM
[5] = tested on: tumor cells from primary human tumors (MAP Kinase pathway); experiment: Proliferation of primary human tumor cells (ERK modified or unchanged) alone or with stromal fibroblasts; assay type: cell-based; conditions: antagonist 1 μM
[6] = tested on: cell line C-12210 (microvascular endothelial cells); experiment: Proliferation of C-12210 endothelial cell cultures (MTS); assay type: cell-based, human;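 note: MTS colorimetric read-out in culture wells, absorbance at 492 nm with 690 nm reference, MTS added 90 min before reading, blank without cells, compared with untreated control cells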
[7] = tested on: human primary macrophages (PHM); experiment: IL-8 Western blotting in human primary macrophages; assay type: cell-based; conditions: cultured in the presence of SP
Source text: Further cells that make up the microenvironment are peritumoral macrophage lineage cells that are of great importance in the development of the microenvironment around the tumor, by interacting with tumor cells to stimulate their growth and spread by secretion into the medium of different markers that promote the expansion and growth of tumors. In this sense the next step was to analyze the effect exerted by the treatment with non-peptide NK1 antagonists in human primary macrophages (PHM) obtained and purified from pleural effusion samples obtained from men with chronic age range between 45 and 55 years. Briefly, the pleural fluid from chronic (rich in macrophages) was centrifuged. […]
Similar results were obtained in the case of TNF-α, respect to its expression to those obtained using the other markers analyzed: EGF, MMP-9 and VEGF, i.e., the treatment with the non-peptide receptor NK1 inhibited the TNF-α marker expression. Also the presence of IL-8 were determined by Western blotting, as explained in Example 1, using […] primary antibody (AB1427, Merck-Millipore).

[8] = irrespective of MAP Kinases pathway integrity

## C[C@@H](O[C@H]1OCCN(Cc2n[nH]c(=O)[nH]2)[C@H]1c1ccc(F)cc1)c1cc(C(F)(F)F)cc(C(F)(F)F)c1 [Aprepitant]
[1]; AKT modified or unchanged
  growth of primary tumor cells cultured alone (in words): only inhibits the growth of cells in which said receptor acts through the PI3 Kinase pathway
[1]; irrespective of PI3 kinases pathway integrity
  proliferation of primary tumor cells co-cultured with stromal fibroblasts (in words): produces a proliferation of inhibition of tumor cells
[2]; AKT modified or unchanged
  growth of primary tumor cells cultured alone (in words): only inhibits the growth of cells in which said receptor acts through the PI3 Kinase pathway
[2]; irrespective of PI3 Kinase pathway integrity
  proliferation of primary tumor cells co-cultured with macrophages (in words): produces a proliferation of inhibition of tumor cells
[3]
  growth of primary tumor cells cultured alone (in words): does not inhibit the growth of tumor cells at low dose
  proliferation of primary tumor cells co-cultured with stromal fibroblasts and immune/inflammatory cells (in words): produces a proliferation of inhibition of tumor cells
[4]; ERK modified or unchanged
  growth of primary tumor cells cultured alone (in words): only inhibits the growth of cells in which said receptor acts through the MAP Kinases pathway
[4]; [8]
  proliferation of primary tumor cells co-cultured with macrophages (in words): produces a proliferation of inhibition of tumor cells
[5]; ERK modified or unchanged
  growth of primary tumor cells cultured alone (in words): only inhibits the growth of cells in which the receptor acts NK1 through the MAP Kinases pathway
[5]; [8]
  proliferation of primary tumor cells co-cultured with stromal fibroblasts (in words): produces a proliferation of inhibition of tumor cells

## CSCC[C@H](NC(=O)[C@H](CC(C)C)NC(=O)CNC(=O)[C@H](Cc1ccccc1)NC(=O)[C@H](Cc1ccccc1)NC(=O)[C@H](CCC(N)=O)NC(=O)[C@H](CCC(N)=O)NC(=O)[C@@H]1CCCN1C(=O)[C@H](CCCCN)NC(=O)[C@@H]1CCCN1C(=O)[C@@H](N)CCCNC(=N)N)C(N)=O [SP]
[6]; SP 10 nM, exposure 0 h
  proliferation, percentage of control ± SD: 102.2 ± 1%
[6]; SP 10 nM, exposure 24 h
  proliferation, percentage of control ± SD: 119.1 ± 1.8%
[6]; SP 10 nM, exposure 48 h
  proliferation, percentage of control ± SD: 139.3 ± 3.1%
[6]; SP 10 nM, exposure 72 h
  proliferation, percentage of control ± SD: 134.3 ± 2.8%
[6]; SP 100 nM, exposure 0 h
  proliferation, percentage of control ± SD: 109.5 ± 2.9%
[6]; SP 100 nM, exposure 24 h
  proliferation, percentage of control ± SD: 17 ± 2.7%
[6]; SP 100 nM, exposure 48 h
  proliferation, percentage of control ± SD: 21 ± 2.6%
[6]; SP 100 nM, exposure 72 h
  proliferation, percentage of control ± SD: 32.4 ± 3.3%
[6]; SP 500 nM, exposure 0 h
  proliferation, percentage of control ± SD: 128.9 ± 2.7%
[6]; SP 500 nM, exposure 24 h
  proliferation, percentage of control ± SD: 137 ± 3.8%
[6]; SP 500 nM, exposure 48 h
  proliferation, percentage of control ± SD: 146 ± 4.7%
[6]; SP 500 nM, exposure 72 h
  proliferation, percentage of control ± SD: 158.5 ± 4.6%
[6]; SP 1 μM, exposure 0 h
  proliferation, percentage of control ± SD: 175.3 ± 5.2%
[6]; SP 1 μM, exposure 24 h
  proliferation, percentage of control ± SD: 186 ± 6.3%
[6]; SP 1 μM, exposure 48 h
  proliferation, percentage of control ± SD: 194.4 ± 6.5%
[6]; SP 1 μM, exposure 72 h
  proliferation, percentage of control ± SD: 199 ± 5.5%
[6]; SP 50 μM, exposure 0 h
  proliferation, percentage of control ± SD: 218 ± 3.5%
[6]; SP 50 μM, exposure 24 h
  proliferation, percentage of control ± SD: 242 ± 6.7%
[6]; SP 50 μM, exposure 48 h
  proliferation, percentage of control ± SD: 247 ± 6.5%
[6]; SP 50 μM, exposure 72 h
  proliferation, percentage of control ± SD: 259.4 ± 4.1%
[6]; SP 100 μM, exposure 0 h
  proliferation, percentage of control ± SD: 236.4 ± 5.6%
[6]; SP 100 μM, exposure 24 h
  proliferation, percentage of control ± SD: 258 ± 4.5%
[6]; SP 100 μM, exposure 48 h
  proliferation, percentage of control ± SD: 259.5 ± 4.6%
[6]; SP 100 μM, exposure 72 h
  proliferation, percentage of control ± SD: 266.9 ± 6.8%
[6]; increasing concentrations
  effect on growth/proliferation of C-12210 cells (in words): stimulating effect on the growth of human endothelial cells
[7]
  IL-8 expression in macrophages, Western blotting (in words): showed expression of this marker
